Laboratory results from patent EP4786487A1, “PEPTIDE” (Peptidream Inc, priority 2023, dated 2025).
Positions of bridges follow the written chain, without caps; N, C: chain ends. Non-standard residues stand in square brackets, D forms with d. Residues, ends and D or L forms follow the SMILES beside them. Phe(4-COOH) = N[C@@H](Cc1ccc(C(=O)O)cc1)C(=O)O; Trp(7-aza) = N[C@@H](Cc1c[nH]c2ncccc12)C(=O)O; Gly(N(CH2)3COOH) = O=C(O)CCCNCC(=O)O; NMeF = CN[C@@H](Cc1ccccc1)C(=O)O; 4Pal = N[C@@H](Cc1ccncc1)C(=O)O; NMeA = CN[C@@H](C)C(=O)O; Sar = CNCC(=O)O

Key:
[1] = target: T1, GDF-11 (Homo sapiens, UniProt O95390); assay: HepG2 reporter gene assay, Evaluation Procedure (2): 2-concentrations assay, GDF-11 inhibition; assay type: cell-based; settings: GDF-11 10 ng/mL; for inhibition at 0.03 µM: HepG2, peptide 30nM, read-out: GDF11 Inhibition 30nM; for inhibition at 0.1 µM: HepG2, peptide 100nM, read-out: GDF11 Inhibition 100nM
T1 construct: purchased R&D systems 1958-GD-G8/CF
T1 sequence (O95390 299-407): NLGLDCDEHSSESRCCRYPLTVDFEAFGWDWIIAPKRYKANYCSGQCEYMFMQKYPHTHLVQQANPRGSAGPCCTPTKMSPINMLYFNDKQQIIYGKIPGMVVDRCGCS
Summary of the method: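 HepG2 cells carrying the transfected pGL3(CAGA)12-luc reporter, a pGL3 vector with luciferase placed downstream of 12 CAGA repeats, were stimulated with GDF-11 at a final 10 ng/mL together with test peptide. Blank wells received no GDF-11 and no peptide. Plates were incubated 20 to 24 hours at 37°C with 5% CO2. Luminescence from One-Glo substrate was read to calculate percent inhibition.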

[2] = target: T2, Myostatin (Homo sapiens, UniProt O14793); assay: HepG2 reporter gene assay, Evaluation Procedure (2): 2-concentrations assay, myostatin inhibition; assay type: cell-based; settings: Myostatin 10 ng/mL, HepG2; for inhibition at 0.03 µM: peptide 30nM, read-out: Myostatin Inhibition 30nM; for inhibition at 0.1 µM: peptide 100nM, read-out: Myostatin Inhibition 100nM
T2 construct: active myostatin (also called mature myostatin) is a homodimer consisting of two C-terminal growth factor domains; purchased R&D systems 788-G8/CF
T2 sequence (O14793 267-375): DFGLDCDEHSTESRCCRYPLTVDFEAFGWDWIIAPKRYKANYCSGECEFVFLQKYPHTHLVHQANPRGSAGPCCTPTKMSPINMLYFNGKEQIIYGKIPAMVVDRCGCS
Summary of the method: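 Myostatin inhibition was measured in a luciferase reporter assay using HepG2 cells transfected with a pGL3 vector containing 12 CAGA repeats upstream of luciferase. After 20 to 24 hours with 10 ng/mL myostatin, cells received One-Glo:PBS (1:1) at 100 µL/well, were shaken for 5 min, and 20 µL/well was moved to 384-well plates and read on an Envision 2104.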

inhibition at 0.03 µM [1] [%]	inhibition at 0.1 µM [1] [%]	inhibition at 0.03 µM [2] [%]	inhibition at 0.1 µM [2] [%]	Compound
13	36	95	100	CC[C@H](C)[C@@H]1NC(=O)[C@H](Cc2ccccc2)N(C)C(=O)[C@H](Cc2ccc(O)cc2)NC(=O)[C@H](Cc2c[nH]c3ncccc23)NC(=O)[C@H](C)NC(=O)[C@H](C)NC(=O)CSC[C@H](C(=O)N[C@H](CO)C(=O)N[C@H](CO)C(=O)N[C@H](CO)C(=O)N[C@H](CCCCN)C(=O)O)NC(=O)[C@H](Cc2ccccc2)N(C)C(=O)[C@H](C)N(C)C(=O)[C@H](CC(C)C)NC(=O)[C@H](Cc2ccccc2)N(C)C(=O)[C@H](CCCNC(=N)N)NC(=O)[C@H](Cc2ccc(C(=O)O)cc2)NC(=O)[C@H](Cc2ccccc2)NC(=O)CN(C)C1=O [Myostatin_99_v35] ({CH2CO}-AA[Trp(7-aza)]Y[NMeF]I[Sar]F[Phe(4-COOH)]R[NMeF]L[NMeA][NMeF][dC][dS][dS][dS][dK]-OH; thioether N-15)
2	18	92	98	CC[C@H](C)[C@@H]1NC(=O)[C@H](Cc2ccccc2)N(C)C(=O)[C@H](Cc2ccc(O)cc2)NC(=O)[C@H](Cc2c[nH]c3ncccc23)NC(=O)[C@H](C)NC(=O)[C@H](C)NC(=O)CSC[C@H](C(=O)N[C@H](CO)C(=O)N[C@H](CO)C(=O)N[C@H](CO)C(=O)N[C@H](CCCCN)C(=O)O)NC(=O)[C@H](Cc2ccccc2)N(C)C(=O)[C@H](C)N(C)C(=O)[C@H](CC(C)C)NC(=O)[C@H](Cc2ccccc2)N(C)C(=O)[C@H](CCCNC(=N)N)NC(=O)[C@H](Cc2ccc(C(=O)O)cc2)NC(=O)[C@H](Cc2ccncc2)NC(=O)CN(C)C1=O [Myostatin_99_v36] ({CH2CO}-AA[Trp(7-aza)]Y[NMeF]I[Sar][4Pal][Phe(4-COOH)]R[NMeF]L[NMeA][NMeF][dC][dS][dS][dS][dK]-OH; thioether N-15)
0	0	69	88	CC[C@H](C)[C@@H]1NC(=O)[C@H](Cc2ccccc2)N(C)C(=O)[C@H](Cc2ccc(O)cc2)NC(=O)[C@H](Cc2c[nH]c3ncccc23)NC(=O)[C@H](C)NC(=O)CN(CCCC(=O)O)C(=O)CSC[C@H](C(=O)N[C@H](CO)C(=O)N[C@H](CO)C(=O)N[C@H](CO)C(=O)N[C@H](CCCCN)C(=O)O)NC(=O)[C@H](Cc2ccccc2)N(C)C(=O)[C@H](C)N(C)C(=O)[C@H](CC(C)C)NC(=O)[C@H](Cc2ccccc2)N(C)C(=O)[C@H](CCCNC(=N)N)NC(=O)[C@H](Cc2ccc(C(=O)O)cc2)NC(=O)[C@H](Cc2ccccc2)NC(=O)CN(C)C1=O [Myostatin_99_v37] ({CH2CO}-[Gly(N(CH2)3COOH)]A[Trp(7-aza)]Y[NMeF]I[Sar]F[Phe(4-COOH)]R[NMeF]L[NMeA][NMeF][dC][dS][dS][dS][dK]-OH; thioether N-15)
0	11	40	80	CC[C@H](C)[C@@H]1NC(=O)[C@H](Cc2ccccc2)N(C)C(=O)[C@H](Cc2ccc(O)cc2)NC(=O)[C@H](Cc2c[nH]c3ncccc23)NC(=O)[C@H](C)NC(=O)CN(CCCC(=O)O)C(=O)CSC[C@H](C(=O)N[C@H](CO)C(=O)N[C@H](CO)C(=O)N[C@H](CO)C(=O)N[C@H](CCCCN)C(=O)O)NC(=O)[C@H](Cc2ccccc2)N(C)C(=O)[C@H](C)N(C)C(=O)[C@H](CC(C)C)NC(=O)[C@H](Cc2ccccc2)N(C)C(=O)[C@H](CCCNC(=N)N)NC(=O)[C@H](Cc2ccc(C(=O)O)cc2)NC(=O)[C@H](Cc2ccncc2)NC(=O)CN(C)C1=O [Myostatin_99_v38] ({CH2CO}-[Gly(N(CH2)3COOH)]A[Trp(7-aza)]Y[NMeF]I[Sar][4Pal][Phe(4-COOH)]R[NMeF]L[NMeA][NMeF][dC][dS][dS][dS][dK]-OH; thioether N-15)

The next lines start with the molecule.

Compound	inhibition at 0.03 µM [1] [%]	inhibition at 0.1 µM [1] [%]	inhibition at 0.03 µM [2] [%]	inhibition at 0.1 µM [2] [%]
CC[C@H](C)[C@@H]1NC(=O)[C@H](Cc2ccccc2)N(C)C(=O)[C@H](Cc2ccc(O)cc2)NC(=O)[C@H](Cc2c[nH]c3ccccc23)NC(=O)[C@H](C)NC(=O)CN(CCCC(=O)O)C(=O)CSC[C@H](C(=O)NCC(=O)N[C@H](CCC(=O)O)C(=O)NCC(=O)N[C@H](CCCCN)C(=O)O)NC(=O)[C@H](Cc2ccccc2)N(C)C(=O)[C@H](C)N(C)C(=O)[C@H](CC(C)C)NC(=O)[C@H](Cc2ccccc2)N(C)C(=O)[C@H](CCCNC(=N)N)NC(=O)[C@H](Cc2ccc(C(=O)O)cc2)NC(=O)[C@H](Cc2ccc(O)cc2)NC(=O)CN(C)C1=O [Myostatin_99_v27] ({CH2CO}-[Gly(N(CH2)3COOH)]AWY[NMeF]I[Sar]Y[Phe(4-COOH)]R[NMeF]L[NMeA][NMeF][dC]G[dE]G[dK]-OH; thioether N-15)	0	0	24	54
CC[C@H](C)[C@@H]1NC(=O)[C@H](Cc2ccccc2)N(C)C(=O)[C@H](Cc2ccc(O)cc2)NC(=O)[C@H](Cc2c[nH]c3ncccc23)NC(=O)[C@H](C)NC(=O)[C@H](C)NC(=O)CSC[C@H](C(=O)NCC(=O)N[C@H](CCC(=O)O)C(=O)NCC(=O)N[C@H](CCCCN)C(=O)O)NC(=O)[C@H](Cc2ccccc2)N(C)C(=O)[C@H](C)N(C)C(=O)[C@H](CC(C)C)NC(=O)[C@H](Cc2ccccc2)N(C)C(=O)[C@H](CCCNC(=N)N)NC(=O)[C@H](Cc2ccc(C(=O)O)cc2)NC(=O)[C@H](Cc2ccccc2)NC(=O)CN(C)C1=O [Myostatin_99_v28] ({CH2CO}-AA[Trp(7-aza)]Y[NMeF]I[Sar]F[Phe(4-COOH)]R[NMeF]L[NMeA][NMeF][dC]G[dE]G[dK]-OH; thioether N-15)	0	20	69	92
CC[C@H](C)[C@@H]1NC(=O)[C@H](Cc2ccccc2)N(C)C(=O)[C@H](Cc2ccc(O)cc2)NC(=O)[C@H](Cc2c[nH]c3ncccc23)NC(=O)[C@H](C)NC(=O)[C@H](C)NC(=O)CSC[C@H](C(=O)NCC(=O)N[C@H](CCC(=O)O)C(=O)NCC(=O)N[C@H](CCCCN)C(=O)O)NC(=O)[C@H](Cc2ccccc2)N(C)C(=O)[C@H](C)N(C)C(=O)[C@H](CC(C)C)NC(=O)[C@H](Cc2ccccc2)N(C)C(=O)[C@H](CCCNC(=N)N)NC(=O)[C@H](Cc2ccc(C(=O)O)cc2)NC(=O)[C@H](Cc2ccncc2)NC(=O)CN(C)C1=O [Myostatin_99_v29] ({CH2CO}-AA[Trp(7-aza)]Y[NMeF]I[Sar][4Pal][Phe(4-COOH)]R[NMeF]L[NMeA][NMeF][dC]G[dE]G[dK]-OH; thioether N-15)	0	0	57	81
CC[C@H](C)[C@@H]1NC(=O)[C@H](Cc2ccccc2)N(C)C(=O)[C@H](Cc2ccc(O)cc2)NC(=O)[C@H](Cc2c[nH]c3ncccc23)NC(=O)[C@H](C)NC(=O)CN(CCCC(=O)O)C(=O)CSC[C@H](C(=O)NCC(=O)N[C@H](CCC(=O)O)C(=O)NCC(=O)N[C@H](CCCCN)C(=O)O)NC(=O)[C@H](Cc2ccccc2)N(C)C(=O)[C@H](C)N(C)C(=O)[C@H](CC(C)C)NC(=O)[C@H](Cc2ccccc2)N(C)C(=O)[C@H](CCCNC(=N)N)NC(=O)[C@H](Cc2ccc(C(=O)O)cc2)NC(=O)[C@H](Cc2ccccc2)NC(=O)CN(C)C1=O [Myostatin_99_v30] ({CH2CO}-[Gly(N(CH2)3COOH)]A[Trp(7-aza)]Y[NMeF]I[Sar]F[Phe(4-COOH)]R[NMeF]L[NMeA][NMeF][dC]G[dE]G[dK]-OH; thioether N-15)	0	0	31	60
CC[C@H](C)[C@@H]1NC(=O)[C@H](Cc2ccccc2)N(C)C(=O)[C@H](Cc2ccc(O)cc2)NC(=O)[C@H](Cc2c[nH]c3ccccc23)NC(=O)[C@H](C)NC(=O)CN(CCCC(=O)O)C(=O)CSC[C@H](C(=O)N[C@H](CO)C(=O)N[C@H](CO)C(=O)N[C@H](CO)C(=O)N[C@H](CCCCN)C(=O)O)NC(=O)[C@H](Cc2ccccc2)N(C)C(=O)[C@H](C)N(C)C(=O)[C@H](CC(C)C)NC(=O)[C@H](Cc2ccccc2)N(C)C(=O)[C@H](CCCNC(=N)N)NC(=O)[C@H](Cc2ccc(C(=O)O)cc2)NC(=O)[C@H](Cc2ccc(O)cc2)NC(=O)CN(C)C1=O [Myostatin_99_v34] ({CH2CO}-[Gly(N(CH2)3COOH)]AWY[NMeF]I[Sar]Y[Phe(4-COOH)]R[NMeF]L[NMeA][NMeF][dC][dS][dS][dS][dK]-OH; thioether N-15)	0	32	65	89
